Measurements: PubChem BioAssay AID2060505 (Molecular Pharmacology Branch, DTP, NCI, 2025)
pIC50: −log10 of the molar value.

Test system: 633275-114-R-J1-PDC complex spheroids, viability
Assay: Anticancer human tumor 633275-114-R-J1-PDC patient-derived endometrial adenocarcinoma cell line growth inhibition [GQUAD]
Settings: for pIC50: curve of first compound; for viability, T/C: stronger effect = lower value
Source text: DNA G-quadruplex Stabilizer Agents in Combinations in Complex Spheroids
A high-throughput screen of multi-cell type tumor spheroids was designed to identify active combinations of DNA G-quadruplex stabilizer agents and targeted small molecules. Complex spheroids include a stromal component modeled by human endothelial cells (HUVEC) and fibroblasts modeled by human mesenchymal stem cells (MSCs). The concentration ranges selected for each drug and investigational agent were based upon clinically achievable concentrations if the clinical Cmax of the agent was known.
Compounds. The drugs and investigational agents: pidnarulex (CX-5461; NSC782164), APTO-253 (NSC789042), BRACO-19 (NSC847499), peposertib (NSC802822), ceralasertib (NSC780249), elimusertib (NSC800525), camonsertib (NSC841442), AZD-1390 (NSC803789), olaparib (NSC753686), talazoparib (NSC767125), ART-558 (NSC835418), sotorasib (NSC818433), MRTX-1133 (NSC836407), SN-38 (NSC673596), topotecan (NSC609699), etoposide (NSC141540), doxorubicin (NSC123127), gemcitabine (NSC613327), 5-fluorouracil (NSC19893), paclitaxel (NSC125973), vemurafenib (NSC761431), panobinostat (NSC761190), R-306465 (JNJ-16241199; NSC773264), adavosertib (NSC754352), TP-3654 (NSC805149), carboplatin (NSC241240), KSQ-4279 (NSC840948), and staurosporine (NSC755774) were obtained from the National Cancer Institute (NCI) Developmental Therapeutics Program Chemical Repository (34). The FDA-approved anticancer drug set is available from the NCI Developmental Therapeutics Program. […] The stock solutions were prepared in dimethyl sulfoxide (DMSO, Sigma-Aldrich, St. Louis, MO, cat. D2650) at 800-fold the tested concentration and stored at -70 degrees C prior to their use. All drugs and investigational agents were tested over a range starting from a high concentration at or near the clinical Cmax and decreasing in half-log increments. If the clinical Cmax for an agent had not been determined, the highest concentration tested was 10 microM.
2.3 Cell Culture. All cells were maintained in an incubator at 37 degrees C and 5% CO2 with 95% humidity. The PDC lines were cultured according to standard operating procedures established by the NCI PDMR. All PDCs were thawed and cultured in Matrigel-coated flasks prepared with a working solution of 1X Ham's F-12 nutrient mix, without supplementation (Invitrogen, cat. 11765054), 100 U/mL penicillin-streptomycin (Invitrogen, cat. 15140122), and 2.5% Matrigel (Corning Inc., cat. 354248) for the first three passages. The 857933-349-R-J2-PDC line was cultured in 6C/Colon 1B media, which includes advanced DMEM/F-12 (Thermo Fisher Scientific, cat. 12634028), 10 mM HEPES (Thermo Fisher Scientific, cat. 15630080), 1X GlutaMAX supplement (Thermo Fisher Scientific, cat. 35050061), 0.1 mg/mL primocin (InvivoGen, cat. ant-pm-2), 10% defined fetal bovine serum, heat inactivated (HyClone Laboratories Inc., cat. SH30070.03HI), 50% L-WRN conditioned media (ATCC, cat. CRL-3276), 1.25 mM N-Acetyl-L-cysteine (Sigma-Aldrich, cat. A9165), 10 mM nicotinamide (Sigma-Aldrich, cat. N0636), 1X B-27 supplement (Thermo Fisher Scientific, cat. 17504044), 1X N-2 supplement (Thermo Fisher Scientific, cat. 17502048), 10 microM Y-27632 dihydrochloride (Tocris Bioscience, cat. 1254), and 50 ng/mL human EGF recombinant protein (Thermo Fisher Scientific, cat. PHG0311). The 485176-168-R4-J1-PDC line was cultured in Panc media, which includes all 6C/Colon 1B media components plus 100 ng/mL human FGF-10 (Thermo Fisher Scientific, cat. 100-26), 500 nM SB-431542 (Selleckchem, cat. S1067), and gastrin (Tocris, cat. 3006).
[…]

[1] = second compound 0.0316 µM, first compound 0.0316 µM
[2] = second compound 0.0316 µM, first compound 0.316 µM
[3] = second compound 0.1 µM, first compound 0.0316 µM
[4] = second compound 0.1 µM, first compound 0.316 µM
[5] = second compound 0.316 µM, first compound 0.0316 µM
[6] = second compound 0.316 µM, first compound 0.316 µM
[7] = second compound 1 µM, first compound 0.0316 µM
[8] = second compound 1 µM, first compound 0.316 µM
[9] = second compound 3.16 µM, first compound 0.0316 µM
[10] = second compound 3.16 µM, first compound 0.316 µM
[11] = second compound 10 µM, first compound 0.0316 µM
[12] = second compound 10 µM, first compound 0.316 µM
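Note: spheroids exposed to the agents for seven days.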
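Throughout, for viability, T/C: percent of DMSO vehicle control viability which is 100%.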

Cc1[nH]c2ccccc2c1CCNCc1ccc(/C=C/C(=O)NO)cc1 + CN(C)c1ccc(Nc2c3ccc(NC(=O)CCN4CCCC4)cc3nc3cc(NC(=O)CCN4CCCC4)ccc23)cc1
pIC50 (second compound 0.0316 µM): 7.08 | pIC50 (second compound 0.1 µM): 7.26 | pIC50 (second compound 0.316 µM): 7.26 | pIC50 (second compound 1 µM): 7.32 | pIC50 (second compound 3.16 µM): 7.61 | pIC50 (second compound 10 µM): > 9.00 | viability, T/C (second compound 0.0316 µM, first compound 0.000999 µM): 97.4% | viability, T/C (second compound 0.0316 µM, first compound 0.00316 µM): 94.7% | viability, T/C (second compound 0.0316 µM, first compound 0.00999 µM): 84.9% | viability, T/C [1]: 59.6% | viability, T/C (second compound 0.0316 µM, first compound 0.0999 µM): 51.3% | viability, T/C [2]: 21.6% | viability, T/C (second compound 0.1 µM, first compound 0.000999 µM): 94.2% | viability, T/C (second compound 0.1 µM, first compound 0.00316 µM): 102% | viability, T/C (second compound 0.1 µM, first compound 0.00999 µM): 80.5% | viability, T/C [3]: 57.1% | viability, T/C (second compound 0.1 µM, first compound 0.0999 µM): 43% | viability, T/C [4]: 22% | viability, T/C (second compound 0.316 µM, first compound 0.000999 µM): 96.8% | viability, T/C (second compound 0.316 µM, first compound 0.00316 µM): 97.4% | viability, T/C (second compound 0.316 µM, first compound 0.00999 µM): 70.5% | viability, T/C [5]: 60.5% | viability, T/C (second compound 0.316 µM, first compound 0.0999 µM): 41.2% | viability, T/C [6]: 19.4% | viability, T/C (second compound 1 µM, first compound 0.000999 µM): 88% | viability, T/C (second compound 1 µM, first compound 0.00316 µM): 83.4% | viability, T/C (second compound 1 µM, first compound 0.00999 µM): 67.3% | viability, T/C [7]: 58.1% | viability, T/C (second compound 1 µM, first compound 0.0999 µM): 38.4% | viability, T/C [8]: 18.3% | viability, T/C (second compound 3.16 µM, first compound 0.000999 µM): 82.4% | viability, T/C (second compound 3.16 µM, first compound 0.00316 µM): 80.2% | viability, T/C (second compound 3.16 µM, first compound 0.00999 µM): 61.2% | viability, T/C [9]: 48.6% | viability, T/C (second compound 3.16 µM, first compound 0.0999 µM): 26.3% | viability, T/C [10]: 15.4% | viability, T/C (second compound 10 µM, first compound 0.000999 µM): 34.1% | viability, T/C (second compound 10 µM, first compound 0.00316 µM): 29.8% | viability, T/C (second compound 10 µM, first compound 0.00999 µM): 21% | viability, T/C [11]: 23.4% | viability, T/C (second compound 10 µM, first compound 0.0999 µM): 13.6% | viability, T/C [12]: 4.56%

CC(=O)O[C@H]1C(=O)[C@@]2(C)[C@H]([C@H](OC(=O)c3ccccc3)[C@]3(O)C[C@H](OC(=O)[C@H](O)[C@@H](NC(=O)c4ccccc4)c4ccccc4)C(C)=C1C3(C)C)[C@]1(OC(C)=O)CO[C@@H]1C[C@@H]2O + CN(C)c1ccc(Nc2c3ccc(NC(=O)CCN4CCCC4)cc3nc3cc(NC(=O)CCN4CCCC4)ccc23)cc1
pIC50 (second compound 0.0316 µM): > 7.50 | pIC50 (second compound 0.1 µM): > 7.50 | pIC50 (second compound 0.316 µM): > 7.50 | pIC50 (second compound 1 µM): > 7.50 | pIC50 (second compound 3.16 µM): > 7.50 | pIC50 (second compound 10 µM): > 7.50 | viability, T/C [1]: 48.9% | viability, T/C (second compound 0.0316 µM, first compound 0.1 µM): 26.1% | viability, T/C [2]: 18.4% | viability, T/C (second compound 0.0316 µM, first compound 1 µM): 22.6% | viability, T/C (second compound 0.0316 µM, first compound 3.16 µM): 20.9% | viability, T/C (second compound 0.0316 µM, first compound 10 µM): 22.7% | viability, T/C [3]: 48.3% | viability, T/C (second compound 0.1 µM, first compound 0.1 µM): 27.3% | viability, T/C [4]: 21.6% | viability, T/C (second compound 0.1 µM, first compound 1 µM): 18.9% | viability, T/C (second compound 0.1 µM, first compound 3.16 µM): 20.5% | viability, T/C (second compound 0.1 µM, first compound 10 µM): 23.5% | viability, T/C [5]: 46.4% | viability, T/C (second compound 0.316 µM, first compound 0.1 µM): 23.6% | viability, T/C [6]: 21.2% | viability, T/C (second compound 0.316 µM, first compound 1 µM): 19.1% | viability, T/C (second compound 0.316 µM, first compound 3.16 µM): 20.7% | viability, T/C (second compound 0.316 µM, first compound 10 µM): 20.4% | viability, T/C [7]: 45.9% | viability, T/C (second compound 1 µM, first compound 0.1 µM): 25.5% | viability, T/C [8]: 17.5% | viability, T/C (second compound 1 µM, first compound 1 µM): 18.8% | viability, T/C (second compound 1 µM, first compound 3.16 µM): 22.4% | viability, T/C (second compound 1 µM, first compound 10 µM): 20.8% | viability, T/C [9]: 41.4% | viability, T/C (second compound 3.16 µM, first compound 0.1 µM): 22.8% | viability, T/C [10]: 20.4% | viability, T/C (second compound 3.16 µM, first compound 1 µM): 21.3% | viability, T/C (second compound 3.16 µM, first compound 3.16 µM): 19.6% | viability, T/C (second compound 3.16 µM, first compound 10 µM): 19.8% | viability, T/C [11]: 23.8% | viability, T/C (second compound 10 µM, first compound 0.1 µM): 15.3% | viability, T/C [12]: 13.8% | viability, T/C (second compound 10 µM, first compound 1 µM): 11.8% | viability, T/C (second compound 10 µM, first compound 3.16 µM): 15.2% | viability, T/C (second compound 10 µM, first compound 10 µM): 12.9%
